Laboratory results as given in patent US20260097002A1, “METHOD OF TREATMENT AND DEVICE FOR THE IMPROVED BIOAVAILABILITY OF LEUKOTRIENE RECEPTOR ANTAGONISTS” (INTELGENX CORP., priority 2022, published 2026).

Assays:
[1] = Clinical study: plasma pharmacokinetics, film vs Singulair tablet; format: in vivo; conditions: human, oral, 10 mg, clinical trials of the film, read-out: Tmax of plasma levels
Description: We have performed a clinical study of our product to determine the pharmacokinetics of the API loaded into this pharmaceutical platform. […] Singulair® is the marketed formulation of MTL, commonly prescribed for asthma sufferers. It consists of a 10 mg loaded API tablet. The Cmax and Tmax values are listed below, see Table 2. […] These higher values for our films means that we could load less API into the film product and achieve the same Cmax/AUC as the Singulair® reference product. The major difference between the disclosed Intelgenx prototype and Singulair® is the physical state of the MTL once it reaches the stomach. In the Singulair® product, the MTL reaches the stomach in a compressed solid state and thus must solubilize in the stomach under unfavorable conditions. […] The MTL is then transferred to the small intestine via the pylori. Since the MTL is already present as a suspended precipitate, the MTL may more easily reach the small intestine through the leaking pylori. It is well known that the pylori is not leak proof and allows some liquid to flow through even in its closed position. […] In particular, the chewable dosage form is about 1.17 times more bioavailable than the tablet when administered in a fasting subject (compared using available bioavailability date shown in Table 2). […]

[2] = system: plasma proteins; conditions: cited from earlier work
[3] = rats dosed with radiolabeled MTL; cited from earlier work
[4] = MTL in tablet form; cited from earlier work

Tmax [1]: 2 to 4 h
SMILES: CC(C)(O)c1ccccc1CC[C@@H](SCC1(CC(=O)O)CC1)c1cccc(/C=C/c2ccc3ccc(Cl)cc3n2)c1 [MTL, Montelukast]
Bound to plasma proteins [2]: more than 99% | Distribution across the blood-brain barrier [3]: minimal distribution | Time to maximum concentrations in blood stream [4]: 2 to 4 h
